In PubChem BioAssay (NCI):
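Interpolation was linear, between the two tested concentrations surrounding the appropriate level; five concentrations were tested over 48 hours in 96-well plates. Here, GI50 denotes the concentration required for 50% inhibition of growth. TGI denotes the concentration required for complete inhibition of growth.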

Assays:
Assay in all cases: NCI-60 cell line screen, 48 h
[1] = test system: 786-0 renal
[2] = test system: A498 renal
[3] = test system: A549 NSCLC
[4] = test system: ACHN renal
[5] = test system: BT-549 breast
[6] = test system: CAKI-1 renal
[7] = test system: CCRF-CEM leukemia
[8] = test system: COLO 205 colon
[9] = test system: DU-145 prostate
[10] = test system: EKVX NSCLC
[11] = test system: HCC-2998 colon
[12] = test system: HCT-116 colon
[13] = test system: HCT-15 colon
[14] = test system: HL-60(TB) leukemia
[15] = test system: HOP-62 NSCLC
[16] = test system: HOP-92 NSCLC
[17] = test system: HS 578T breast
[18] = test system: HT29 colon
[19] = test system: IGROV1 ovarian
[20] = test system: K-562 leukemia
[21] = test system: KM12 colon
[22] = test system: LOX IMVI melanoma
[23] = test system: M14 melanoma
[24] = test system: MALME-3M melanoma
[25] = test system: MCF7 breast
[26] = test system: MDA-MB-231 breast
[27] = test system: MDA-MB-435
[28] = test system: MOLT-4 leukemia
[29] = test system: NCI-H226 lung
[30] = test system: NCI-H23 lung
[31] = test system: NCI-H460 lung
[32] = test system: NCI-H522 lung
[33] = test system: NCI/ADR-RES ovarian
[34] = test system: OVCAR-4 ovarian
[35] = test system: OVCAR-5 ovarian
[36] = test system: OVCAR-8 ovarian
[37] = test system: PC-3 prostate
[38] = test system: RPMI-8226 leukemia
[39] = test system: RXF 393 renal
[40] = test system: SF-268 CNS
[41] = test system: SF-295 CNS
[42] = test system: SF-539 CNS
[43] = test system: SK-MEL-2 melanoma
[44] = test system: SK-MEL-28 melanoma
[45] = test system: SK-MEL-5 melanoma
[46] = test system: SK-OV-3 ovarian
[47] = test system: SN12C renal
[48] = test system: SNB-19 CNS
[49] = test system: SNB-75 CNS
[50] = test system: SR leukemia
[51] = test system: SW-620 colon
[52] = test system: T-47D breast
[53] = test system: TK-10 renal
[54] = test system: U251 CNS
[55] = test system: UACC-257 melanoma
[56] = test system: UACC-62 melanoma
[57] = test system: UO-31 renal
[58] = test system: OVCAR-3 ovarian

Work on `CCC(CC)N1C(=O)/C(=c2\sc3n(c2=O)C2C(NN=3)N(CC)C(=O)N2CC)c2ccccc21` (stereo not given) yielded a GI50 [1] of 665 nM, a TGI [1] of 14800 nM and a GI50 [2] of 287 nM. For the same compound, the TGI [2] was 925 nM, the GI50 [3] was 503 nM and the TGI [3] was 21700 nM. For the same compound, the GI50 [4] was 690 nM, the TGI [4] was 16600 nM and the GI50 [5] was 465 nM. For the same compound, the TGI [5] was 3290 nM, the GI50 [6] was 577 nM and the TGI [6] was 14900 nM. It also gave a GI50 [7] of 365 nM, a TGI [7] greater than 94000 nM and a GI50 [8] of 317 nM. For the same compound, the TGI [8] was 1120 nM, the GI50 [9] was 453 nM and the TGI [9] was 17200 nM. For the same compound, the GI50 [10] was 734 nM, the TGI [10] was greater than 87800 nM and the GI50 [11] was 370 nM. The TGI [11] was 12600 nM, the GI50 [12] was 345 nM and the TGI [12] was 5180 nM. For the same compound, the GI50 [13] was 353 nM, the TGI [13] was 13100 nM and the GI50 [14] was 288 nM. The TGI [14] was 888 nM, the GI50 [15] was 554 nM and the TGI [15] was 22500 nM. The GI50 [16] was 2410 nM, the TGI [16] was 45400 nM and the GI50 [17] was 381 nM. The TGI [17] was 22500 nM, the GI50 [18] was 326 nM and the TGI [18] was 3040 nM. It also gave a GI50 [19] of 554 nM, a TGI [19] of 19200 nM and a GI50 [20] of 351 nM. For the same compound, the TGI [20] was greater than 100000 nM, the GI50 [21] was 431 nM and the TGI [21] was 25100 nM. For the same compound, the GI50 [22] was 345 nM, the TGI [22] was 11100 nM and the GI50 [23] was 337 nM. For the same compound, the TGI [23] was 11500 nM, the GI50 [24] was 3460 nM and the TGI [24] was 35100 nM. It also gave a GI50 [25] of 364 nM, a TGI [25] of 14000 nM and a GI50 [26] of 591 nM. It also gave a TGI [26] of 12000 nM, a GI50 [27] of 240 nM and a TGI [27] of 602 nM. For the same compound, the GI50 [28] was 434 nM, the TGI [28] was greater than 41100 nM and the GI50 [29] was 923 nM. It also gave a TGI [29] of 37100 nM, a GI50 [30] of 535 nM and a TGI [30] of 17800 nM. The GI50 [31] was 364 nM, the TGI [31] was 29000 nM and the GI50 [32] was 312 nM. The TGI [32] was 3360 nM, the GI50 [33] was 385 nM and the TGI [33] was 15600 nM. For the same compound, the GI50 [34] was 10400 nM, the TGI [34] was greater than 100000 nM and the GI50 [35] was 538 nM. The TGI [35] was 35300 nM, the GI50 [36] was 397 nM and the TGI [36] was 26700 nM. The GI50 [37] was 473 nM, the TGI [37] was greater than 100000 nM and the GI50 [38] was 442 nM. It also gave a TGI [38] of 8450 nM, a GI50 [39] of 326 nM and a TGI [39] of 16700 nM. For the same compound, the GI50 [40] was 1070 nM, the TGI [40] was 29300 nM and the GI50 [41] was 324 nM. It also gave a TGI [41] of 12300 nM, a GI50 [42] of 307 nM and a TGI [42] of 3430 nM. It also gave a GI50 [43] of 1920 nM, a TGI [43] of 5880 nM and a GI50 [44] of 5820 nM. For the same compound, the TGI [44] was 60200 nM, the GI50 [45] was 590 nM and the TGI [45] was 4100 nM. For the same compound, the GI50 [46] was 629 nM, the TGI [46] was 51800 nM and the GI50 [47] was 1200 nM. It also gave a TGI [47] of 17800 nM, a GI50 [48] of 465 nM and a TGI [48] of 24600 nM. For the same compound, the GI50 [49] was 198 nM, the TGI [49] was 714 nM and the GI50 [50] was 361 nM. It also gave a TGI [50] greater than 35100 nM, a GI50 [51] of 458 nM and a TGI [51] greater than 100000 nM. It also gave a GI50 [52] of 2800 nM, a TGI [52] greater than 65600 nM and a GI50 [53] of 9040 nM. The TGI [53] was 29100 nM, the GI50 [54] was 405 nM and the TGI [54] was 15500 nM. For the same compound, the GI50 [55] was 7210 nM, the TGI [55] was greater than 78000 nM and the GI50 [56] was 538 nM. For the same compound, the TGI [56] was 21600 nM, the GI50 [57] was 688 nM and the TGI [57] was 33800 nM.

`Cc1cc(F)cc(NS(=O)(=O)c2ccc(-c3cnc(C4CC4)o3)cc2)c1` showed a GI50 [1] of 752 nM, a TGI [1] of 16400 nM and a GI50 [2] of 76.2 nM. For the same compound, the TGI [2] was 1010 nM, the GI50 [3] was 662 nM and the TGI [3] was 14300 nM. It also gave a GI50 [4] of 648 nM, a TGI [4] of 12800 nM and a GI50 [5] of 1010 nM. It also gave a TGI [5] of 9820 nM, a GI50 [6] of 86.9 nM and a TGI [6] of 13100 nM. For the same compound, the GI50 [7] was 199 nM, the TGI [7] was 13500 nM and the GI50 [8] was 246 nM. The TGI [8] was 1760 nM, the GI50 [9] was 421 nM and the TGI [9] was 13800 nM. It also gave a GI50 [10] of 591 nM, a TGI [10] of 13900 nM and a GI50 [11] of 739 nM. The TGI [11] was 10700 nM, the GI50 [12] was 225 nM and the TGI [12] was 10900 nM. It also gave a GI50 [13] of 83.6 nM, a TGI [13] of 11400 nM and a GI50 [14] of 99.3 nM. The TGI [14] was 769 nM, the GI50 [15] was 362 nM and the TGI [15] was 14600 nM. For the same compound, the GI50 [16] was 422 nM, the TGI [16] was 5040 nM and the GI50 [17] was 303 nM. The TGI [17] was 7850 nM, the GI50 [18] was 105 nM and the TGI [18] was 12200 nM. The GI50 [19] was 252 nM, the TGI [19] was 13600 nM and the GI50 [20] was 49.4 nM. It also gave a TGI [20] of 12300 nM, a GI50 [21] of 183 nM and a TGI [21] of 11600 nM. For the same compound, the GI50 [22] was 301 nM, the TGI [22] was 12700 nM and the GI50 [23] was 285 nM. For the same compound, the TGI [23] was 13000 nM, the GI50 [24] was 837 nM and the TGI [24] was 20900 nM. The GI50 [25] was 80.6 nM, the TGI [25] was 12100 nM and the GI50 [26] was 827 nM. For the same compound, the TGI [26] was 13600 nM, the GI50 [27] was 31.4 nM and the TGI [27] was 145 nM. It also gave a GI50 [28] of 366 nM, a TGI [28] of 15400 nM and a GI50 [29] of 489 nM. For the same compound, the TGI [29] was 7820 nM, the GI50 [30] was 585 nM and the TGI [30] was 12600 nM. For the same compound, the GI50 [31] was 142 nM, the TGI [31] was 2030 nM and the GI50 [32] was 372 nM. The TGI [32] was 10800 nM, the GI50 [33] was 120 nM and the TGI [33] was 5290 nM. The GI50 [58] was 52.3 nM, the TGI [58] was 11000 nM and the GI50 [34] was 967 nM. It also gave a TGI [34] of 15200 nM, a GI50 [35] of 926 nM and a TGI [35] of 15500 nM. For the same compound, the GI50 [36] was 735 nM, the TGI [36] was 14700 nM and the GI50 [37] was 342 nM. For the same compound, the TGI [37] was 12300 nM, the GI50 [38] was 179 nM and the TGI [38] was 1870 nM. For the same compound, the GI50 [39] was 161 nM, the TGI [39] was 603 nM and the GI50 [40] was 1500 nM. The TGI [40] was 13200 nM, the GI50 [41] was 127 nM and the TGI [41] was 3490 nM. It also gave a GI50 [42] of 271 nM, a TGI [42] of 2990 nM and a GI50 [43] of 1030 nM. The TGI [43] was 15500 nM, the GI50 [44] was 1890 nM and the TGI [44] was 16600 nM. It also gave a GI50 [45] of 266 nM, a TGI [45] of 1890 nM and a GI50 [46] of 748 nM. The TGI [46] was 15400 nM, the GI50 [47] was 773 nM and the TGI [47] was 11600 nM. The GI50 [48] was 441 nM, the TGI [48] was 15000 nM and the GI50 [49] was 159 nM. It also gave a TGI [49] of 1570 nM, a GI50 [50] of 46.4 nM and a TGI [50] of 5910 nM. For the same compound, the GI50 [51] was 98.8 nM, the TGI [51] was 14400 nM and the GI50 [52] was 268 nM. It also gave a TGI [52] of 21800 nM, a GI50 [53] of 3170 nM and a TGI [53] of 16700 nM. The GI50 [54] was 451 nM, the TGI [54] was 14500 nM and the GI50 [55] was 1770 nM. The TGI [55] was 12100 nM, the GI50 [56] was 122 nM and the TGI [56] was 8860 nM. It also gave a GI50 [57] of 848 nM and a TGI [57] of 12600 nM.
